The nature of data set [1]: Microsome clearance (human). The data set is classed as in vitro ADME. Conditions: human liver microsomes, 45 min, NADPH, read-out: Microsomes (h) clearance (converted). The method, then: (§1) Human or mouse liver microsomes were incubated with the test compound at a concentration of 1 μM for 45 min in the presence of cofactor (NADPH in excess). Samples were collected at various time points, and % remaining of test compound was determined using mass spectrometry (LC-MS/MS) to calculate hepatic clearance rate (L/h/kg).
For orientation: Liver microsomes are a subcellular fraction often used to study metabolism.

A short description of data set [2]: Microsome clearance (mouse). The data set is classed as in vitro ADME. The settings on record: mouse liver microsomes, 45 min, NADPH. How it is done:
as §1

Data set [3] deals with potassium channel human Ether-a-go-go Related Gene (hERG) (Homo sapiens, UniProt Q12809). Kind of data set: hERG channel inhibition. It is filed as cell-based. The source says:
We next used in vitro assays to test absorption, distribution, metabolism, excretion and toxicity (ADMET) parameters for selected compounds. We assessed compound absorption using parallel artificial membrane permeability (PAMPA) and Caco-2 cell permeability assays (cut-off criterion >2 × 10^−6 cm s^−1). […] To assess potential off-target activity of our compounds that could be relevant for safety in humans, we conducted comprehensive in vitro pharmacology using the commercially available and widely used SafetyScreen44 interaction panel[60] covering eight protein families.
(In general: Block of hERG is tested as a sign of cardiac risk.)

Data set [4] in a line: Parallel Artificial Membrane Permeability Assay (PAMPA). It is filed as in vitro ADME. Conditions: pH not given. How it is done: Parallel Artificial Membrane Permeability Assay (PAMPA) was performed using artificial lipid membrane layers to assess passive permeability of the test compound. Test compounds were diluted to 200 μM in system buffer at pH 5.0, 6.2 and 7.4. The solutions were filtered and 150 μL transferred to a High Sensitivity 96 well UV plate. This was analysed by UV as the reference plate. A 200 μL sample of the 200 μM solution was transferred to the ‘donor’ plate of the PAMPA pIon sandwich plate system. 200 μL of acceptor sink buffer was transferred to the ‘acceptor’ plate which had been previously treated with GIT-O lipid solution across the well filter. Donor and acceptor plates were sandwiched and kept in a humid environment at room temperature for 16 hours. On completion of the incubation the donor and acceptor plates were separated. 150 μL of solution was transferred from each of the donor and acceptor PAMPA sandwich plates into High Sensitivity 96 well UV plates for analysis by UV. at different time points. The concentration of the compound in the acceptor compartment was determined using mass spectrometry. The permeability coefficient (Papp) was calculated based on the rate of appearance of the compound in the acceptor compartment (nm/s).
A general note: In PAMPA a lipid-coated filter parts donor from acceptor wells.

The next data set concerns the target T1, CYP 1A2 (Homo sapiens, UniProt P05177).
T1 construct: purchased BD Gentest
T1 sequence (P05177 1-516): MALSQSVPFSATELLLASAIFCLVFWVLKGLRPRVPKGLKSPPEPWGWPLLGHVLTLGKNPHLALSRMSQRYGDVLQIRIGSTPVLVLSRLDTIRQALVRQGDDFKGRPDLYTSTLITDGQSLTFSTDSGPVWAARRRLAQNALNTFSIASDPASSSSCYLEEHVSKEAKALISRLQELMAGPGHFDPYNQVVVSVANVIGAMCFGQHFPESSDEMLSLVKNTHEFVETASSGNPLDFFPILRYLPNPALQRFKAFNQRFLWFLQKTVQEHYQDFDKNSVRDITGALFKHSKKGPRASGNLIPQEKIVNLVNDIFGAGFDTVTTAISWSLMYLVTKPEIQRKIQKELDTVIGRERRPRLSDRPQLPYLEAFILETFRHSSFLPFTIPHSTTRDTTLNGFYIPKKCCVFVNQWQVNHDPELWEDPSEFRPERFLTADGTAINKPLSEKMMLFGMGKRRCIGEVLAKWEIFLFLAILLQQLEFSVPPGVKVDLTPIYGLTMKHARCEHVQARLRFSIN
Briefly: CYP inhibition assay 1A2. It is filed as in vitro ADME. How it is done: The half-maximal inhibitory concentration (IC50) for cytochrome P450 (CYP) enzymes was determined using an in vitro enzyme inhibition assay. Recombinant CYP enzymes or human liver microsomes from BD Gentest, in 0.1 M phosphate buffer pH 7.4, containing native CYP enzymes were incubated with the test compound at various concentrations (1, 3, 10 and 30 μM) and containing 0.5% DMSO and 0.1% BSA final concentrations. 1 mM of NADPH cofactor was added and the reaction was started by a rapid increase of temperature until 37°C.

The test system of data set [5] is primary mouse neuronal cultures. Kind of data set: Glutamate-induced excitotoxicity assay (RealTime-Glo viability). The data set is classed as cell-based. Conditions: 5 μM, primary mouse neuronal cultures. The method, then: To evaluate the in vitro efficacy of our developed compounds, we employed primary mouse neuronal cultures (PNCs) and conducted glutamate-induced excitotoxicity assays. Cultures were pre-treated with respective Series 1 and Series 3 compounds before glutamate exposure, and neuronal viability was assessed 15 h post-stimulation with glutamate.
Figure 3 Neuroprotective in vitro evaluation and in vivo pharmacokinetics (A) In vitro evaluation of compound activity on glutamate-induced excitotoxicity in mature primary neuronal cultures. Neuronal cultures were treated with 5 μM of the specified compound or vehicle control 5 h prior to glutamate stimulation, assessing compound rescue activity and toxicity relative to minimal (Vehicle +0 μM Glu) and maximal (Vehicle +50 μM Glu) excitotoxicity. Time course of a representative compound with virtual endpoint at 15 h post stimulation and assay window definition (left). Toxicity of compound treated cultures with and without glutamate stimulation (right). Data are represented as mean and 95% confidence interval; n ≥ 4; ∗p < 0.05, ∗∗p < 0.01, ∗∗∗p < 0.001; One-sample Wilcoxon signed-rank test. […] Mitochondrial membrane potential was measured by the mean fluorescence intensity of TMRE normalized to MitoTracker. Data are represented as mean ± SEM; n = 5; paired t-test. (C) In vivo pharmacokinetics of four selected compounds. Time course of compound concentration in the brain, heart, and plasma after a single dose via intraperitoneal (i.p.) or intravenous (i.v.) application. Data are represented as mean ± SEM. Half-life estimates by non-compartmental analysis are shown as vertical line and IC50 value as dashed horizontal line. (D) Compound concentration in the brain relative to respective IC50 concentrations after a single dose via intra-peritoneal or intra-venous routes. Also see Figure S6.
Excitotoxicity assays were performed using primary mouse neuronal cultures between 14 and 17 days in vitro (DIV). Cell viability was measured using RealTime-Glo MT Cell Viability Assay (Promega, catalog no. G9711) according to the manufacture protocol. Compounds were co-administered with RealTime-Glo reagents, and luciferase measurements were conducted using the Tecan-Spark M10 microplate reader with environmental control set to 37°C and 5% CO2. Neuronal cultures were stimulated with either glutamate or vehicle five hours after compound application and monitored for an additional 20 hours. To adjust for inter-well variability, arbitrary light units were normalized to a steady signal prior to glutamate addition for each well. Toxicity was calculated relative to the minimal cell viability at 15 hours post glutamate stimulation and cell viability of the PBS vehicle control.

Chain of potassium channel human Ether-a-go-go Related Gene (hERG) (Q12809 whole entry): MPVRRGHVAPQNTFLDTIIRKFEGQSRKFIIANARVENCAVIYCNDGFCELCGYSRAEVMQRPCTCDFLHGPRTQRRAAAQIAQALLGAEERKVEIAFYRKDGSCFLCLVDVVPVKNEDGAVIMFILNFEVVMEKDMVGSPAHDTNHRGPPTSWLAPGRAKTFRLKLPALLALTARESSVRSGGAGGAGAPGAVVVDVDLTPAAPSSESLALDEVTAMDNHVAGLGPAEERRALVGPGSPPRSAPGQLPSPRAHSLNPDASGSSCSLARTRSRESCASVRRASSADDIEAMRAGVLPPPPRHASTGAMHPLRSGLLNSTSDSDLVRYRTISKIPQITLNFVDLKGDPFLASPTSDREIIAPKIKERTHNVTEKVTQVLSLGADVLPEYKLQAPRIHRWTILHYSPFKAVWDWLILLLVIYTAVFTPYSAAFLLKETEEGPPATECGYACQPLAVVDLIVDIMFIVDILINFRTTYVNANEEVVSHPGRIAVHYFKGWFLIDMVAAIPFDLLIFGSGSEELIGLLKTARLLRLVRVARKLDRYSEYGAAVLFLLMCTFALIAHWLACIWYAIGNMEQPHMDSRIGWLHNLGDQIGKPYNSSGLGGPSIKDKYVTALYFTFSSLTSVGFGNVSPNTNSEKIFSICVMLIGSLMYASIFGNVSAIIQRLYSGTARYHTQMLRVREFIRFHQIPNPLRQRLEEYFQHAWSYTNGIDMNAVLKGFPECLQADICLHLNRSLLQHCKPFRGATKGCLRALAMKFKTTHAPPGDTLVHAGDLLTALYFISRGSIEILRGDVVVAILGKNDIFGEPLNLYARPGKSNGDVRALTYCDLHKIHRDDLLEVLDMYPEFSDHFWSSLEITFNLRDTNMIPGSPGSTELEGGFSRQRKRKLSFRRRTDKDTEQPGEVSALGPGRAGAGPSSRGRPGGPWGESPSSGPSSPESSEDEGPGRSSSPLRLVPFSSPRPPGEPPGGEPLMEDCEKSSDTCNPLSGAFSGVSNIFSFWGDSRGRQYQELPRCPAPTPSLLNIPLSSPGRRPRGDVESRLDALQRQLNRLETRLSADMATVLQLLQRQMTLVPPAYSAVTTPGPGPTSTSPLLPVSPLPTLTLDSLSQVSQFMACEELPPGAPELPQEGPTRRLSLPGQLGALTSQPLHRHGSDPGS

Usually IC50 stands for the concentration at which inhibition is half-maximal. Lower therefore signals higher potency. As to `Fc1cccc(-c2ccccc2NCc2nc3ccccc3o2)c1` [CMP343], the values for the CLint scaled at 1 μM in data set [1] and in data set [2] were 570 mL/min/kg and over 900 mL/min/kg, respectively. The same compound had an IC50 in data set [3] of over 30 µM.
As to `Fc1ccccc1-c1ccccc1NCc1nc2ccccc2o1` [CMP353], in data set [4], the PAMPA perm. result is “low sensitivity”. Also, the CLint scaled at 1 μM was 605 mL/min/kg in data set [1] and over 900 mL/min/kg in data set [2]. Besides, the half-inhibitory concentration (IC50) against CYP 1A2 was 1 µM; in data set [3], over 10 µM. In addition, the “Compound toxicity in neuronal cultures” value in data set [5] is “observed toxicity”.
For the compound `c1csc(-c2ccccc2NCc2nc3ccccc3o2)c1` [CMP355], the CLint scaled at 1 μM was 558 mL/min/kg in data set [1] and over 900 mL/min/kg in data set [2]. Moreover, the concentration for half-maximal inhibition (IC50) against CYP 1A2 is 1.3 µM; in data set [3] it was over 10 µM. The “Compound toxicity in neuronal cultures” value in data set [5] is recorded as “observed toxicity”.
On to `Cc1ccsc1-c1ccccc1NCc1nc2ccccc2o1` [CMP369], for which the CLint scaled at 1 μM in data set [1] is 600 mL/min/kg; in data set [2] it was over 900 mL/min/kg. This compound registered a half-inhibitory concentration (IC50) in data set [3] of over 10 µM. The “Compound toxicity in neuronal cultures” value in data set [5] is reported as “observed toxicity”.
Consider `Nc1ccccc1-c1ccccc1NCc1nc2ccccc2o1` [CMP457], for which the Papp at 16 h, 200 μM in data set [4] (PAMPA, read-out: PAMPA perm.) is 37.4 ×10⁻⁶ cm/s. Also, the results for the CLint scaled at 1 μM in data set [1] and in data set [2] were 243 mL/min/kg and 900 mL/min/kg, respectively. Also, in data set [5], the “Compound toxicity in neuronal cultures” value is given as “observed toxicity”.

Source of the values: PMC11648915, “Identification and development of TRPM4 antagonists to counteract neuronal excitotoxicity” (iScience, 2024).
